Laboratory results as given in US10183917B2, “Tricyclic compounds and uses thereof in medicine” (Sunshine Lake Pharma Co., Ltd., priority 2015, dated 2019).

What was measured:
[1] = biological target: nuclear receptor FXR recombinant protein (Homo sapiens (Human), UniProt Q96RI1); test: TR-FRET Farnesoid X Receptor Coactivator Assay; assay type: biochemical; conditions: Fluorescein-SRC2-2, Tb anti-GST antibody, 1 h room temperature
Procedure: Example 36: TR-FRET Farnesoid X Receptor Coactivator Assay
Purchasing invitrogen PV4833 kits.
First, the required amount of the compound was weighed and dissolved in 100% DMSO at the maximum concentration of 3000 μM. The solution at the maximum concentration was diluted by 3-fold serial dilution in DMSO to get 10 concentrations;
Second, the above prepared solutions of different concentrations were diluted to 100-fold with a buffer supplied with the kit, followed by mixing and then 10 μL of the diluted solution was added to a 384 well plate;
Third, nuclear receptor FXR recombinant protein was diluted with a buffer to give a concentration of 4×, and 5 μL of the diluent was added to the 384 well plate of second step;
Fourth, Fluorescein-SRC2-2 and Tb anti-GST antibody were diluted with a buffer to give a concentration of 4× respectively. Then two reagents were mixed together, and 10 μL of the mixture was added to the 384 well plate of third step;
Finally, the solution of the 384 well above was mixed uniformly by centrifuging, and then incubated at room temperature for 1 h. Then the TR-FRET Endpoint was used for measuring the solution at wavelengths of 520 nm, 495 nm and 337 nm. EC50 values were calculated according to the measured value of ER=520 nm/495 nm.

[2] = Pharmacokinetics test in SD rats (iv and po); assay type: in vivo
Procedure: Example 37: Pharmacokinetics Test
Experimental animals: six healthy adult male SD rats (purchased from Hunan Slack King of Laboratory Animal Co. Ltd.) were divided into two groups, three rats in each group, and the two grops were given intravenous injection and oral administration respectively.
Drug preparation: a quantity of a compound of the present invention was weighed, and 5% DMSO, 10% Kolliphor HS15 and 85% saline (0.9%) were added to give target concentrations of the compound solution.
Administration and sample collection: animals were fasting for 12 h until administered, eating 3 h after the administration. Hind legs of SD rats of one group were given intravenous injection (IV, 1 mg/kg) and SD rats of the other group were given oral administration (PO, 5 mg/kg) respectively. Then blood was collected in the rat tail vein at the time point 0, 0.083, 0.25, 0.5, 1, 2, 4, 6, 8, 24 h respectively, and the blood volume was about 200-400 μL/time points. After the collection of whole blood at each time point, the colleted blood was set in K2EDTA anticoagulant tube, and the tube was placed in the incubator with ice packs. All samples were centrifuged for 5 min at 4° C. at 4600 r/min within 15 min. Plasma was separated and colleted. The concentrations of different compounds in the plasma of the rats after adminstration were measured using LC/MS/MS method, and the pharmacokinetic parameters were calculated according to the curve of the drug concentration-time.
Pharmacokinetic properties of the compounds of the present invention were tested by the experiment above, and the pharmacokinetic parameters were shown in Table 3.

[3] = male, SD, rat, in vivo, iv, 1 mg/kg
[4] = male, SD, rat, in vivo, po, 5 mg/kg

nuclear receptor FXR recombinant protein, sequence (Q96RI1 258-486, other chains not shown): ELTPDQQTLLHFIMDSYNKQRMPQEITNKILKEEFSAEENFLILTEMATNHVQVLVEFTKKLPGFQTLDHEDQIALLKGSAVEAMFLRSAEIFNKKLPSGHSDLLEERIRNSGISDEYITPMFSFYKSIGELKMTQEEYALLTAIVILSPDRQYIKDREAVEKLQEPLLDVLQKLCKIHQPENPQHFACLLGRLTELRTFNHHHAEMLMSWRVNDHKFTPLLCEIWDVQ

Compound: O=C(O)c1ccc2c(c1)Oc1ccc(OCc3c(-c4c(Cl)cccc4Cl)noc3C3CC3)nc1C=C2 [Example 30, 2-((5-cyclopropyl-3-(2,6-dichlorophenyl)isoxazol-4-yl)methoxy)benzo[6,7]oxepino[3,2-b]pyridine-7-carboxylic acid]
- EC50 [1]: 27 nM

Compound: CC(C)c1nnn(-c2c(Cl)cccc2Cl)c1COc1ccc2c(c1)CCc1ccc(C(=O)O)cc1C2=O [Example 27, 8-((1-(2,6-dichlorophenyl)-4-isopropyl-1H-1,2,3-triazol-5-yl)methoxy)-5-oxo-10,11-dihydro-5H-dibenzo[a,d][7]annulene-3-carboxylic acid]
- EC50 [1]: 12 nM

Compound: O=C(O)c1ccc2c(c1)CCc1ccc(OCc3c(-c4c(Cl)cccc4Cl)noc3C3CC3)cc1O2 [Example 15, 7-((5-cyclopropyl-3-(2,6-dichlorophenyl)isoxazol-4-yl)methoxy)-10,11-dihydrodibenzo[b,f]oxepine-2-carboxylic acid]
- EC50 [1]: 35 nM

Compound: O=C(O)c1ccc2c(c1)Oc1ccc(OCc3c(-c4c(Cl)cccc4Cl)noc3C3CC3)nc1CCC2 [Example 31, 3-((5-cyclopropyl-3-(2,6-dichlorophenyl)isoxazol-4-yl)methoxy)-6,7-dihydro-5H-benzo[7,8]oxocino[3,2-b]pyridine-10-carboxylic acid]
- EC50 [1]: 56 nM

Compound: O=C(O)c1ccc2c(c1)Oc1ccc(OCc3c(-c4c(Cl)cccc4Cl)noc3C3CC3)cc1SC2 [Example 6, 8-((5-cyclopropyl-3-(2,6-dichlorophenyl)isoxazol-4-yl)methoxy)-11H-dibenzo [b,f][1,4]oxathiepine-3-carboxylic acid]
- EC50 [1]: 55 nM

Compound: O=C(O)c1ccc2c(c1)S(=O)(=O)c1ccc(OCc3c(-c4c(Cl)cccc4Cl)noc3C3CC3)cc1CC2 [Example 11, 8-((5-cyclopropyl-3-(2,6-dichlorophenyl)isoxazol-4-yl)methoxy)-10,11-dihydrodibenzo[b,f]thiepine-3-carboxylic acid-5,5-dioxide]
- EC50 [1]: 56 nM

Compound: O=C(O)c1cnc2c(c1)Oc1cnc(OCc3c(-c4c(Cl)cccc4Cl)noc3C3CC3)cc1CC2 [Example 33, 8-((5-cyclopropyl-3-(2,6-dichlorophenyl)isoxazol-4-yl)methoxy)-10,11-dihydrooxepino[3,2-b:7,6-c′]dipyridine-3-carboxylic acid]
- EC50 [1]: 18 nM

Compound: CS(=O)(=O)c1ccc2c(c1)Oc1ccc(OCc3c(-c4c(Cl)cccc4Cl)noc3C3CC3)nc1CC2 [Example 32, 2-((5-cyclopropyl-3-(2,6-dichlorophenyl)isoxazol-4-yl)methoxy)-7-(methylsulfonyl)-10,11-dihydrobenzo[6,7]oxepino[3,2-b]pyridine]
- EC50 [1]: 54 nM

Compound: O=C(O)c1ccc2c(c1)Oc1ccc(OCc3c(-c4c(Cl)cccc4Cl)noc3C3CC3)cc1CC2 [Example 1, 8-((5-cyclopropyl-3-(2,6-dichlorophenyl)isoxazol-4-yl)methoxy)-10,11-dihydrodibenzo[b,f]oxepine-3-carboxylic acid]
- EC50 [1]: 18 nM

Compound: O=C(NCCS(=O)(=O)O)c1ccc2c(c1)Oc1ccc(OCc3c(-c4c(Cl)cccc4Cl)noc3C3CC3)nc1CC2 [Example 29, 2-(2-((5-cyclopropyl-3-(2,6-dichlorophenyl)isoxazol-4-yl)methoxy)-10,11-dihydrobenzo[6,7]oxepino[3,2-b]pyridine-7-carboxamido)ethanesulfonic acid]
- EC50 [1]: 11 nM

Compound: O=C(O)c1ccc2c(c1)Oc1ccc(OCc3c(-c4c(Cl)cccc4Cl)noc3C3CC3)cc1S(=O)(=O)C2 [Example 5, 8-((5-cyclopropyl-3-(2,6-dichlorophenyl)isoxazol-4-yl)methoxy)-11H-dibenzo[b,f][1,4]oxathiepine-3-carboxylic acid-10,10-dioxide]
- F ([2]; male, SD, rat, in vivo): 62.6%
- AUC(0-inf) [2, 3]: 941 ng·h/mL
- AUC(0-t) [2, 3]: 926 ng·h/mL
- Cmax [2, 3]: 2420 ng/mL
- MRT inf [2, 3]: 45.6 min
- Tmax [2, 3]: 4.8 min
- Vd [2, 3]: 0.82 L/kg
- clearance [2, 3]: 18 mL/min/kg
- half-life [2, 3]: 93.6 min
- AUC(0-inf) [2, 4]: 3350 ng·h/mL
- AUC(0-t) [2, 4]: 2900 ng·h/mL
- Cmax [2, 4]: 1300 ng/mL
- MRT inf [2, 4]: 514 min
- Tmax [2, 4]: 19.8 min
- half-life [2, 4]: 702 min
- EC50 [1]: 6 nM

Compound: O=C(O)c1ccc2c(c1)C(=O)c1ccc(OCc3c(-c4c(Cl)cccc4Cl)noc3C3CC3)cc1CC2 [Example 2, 8-((5-cyclopropyl-3-(2,6-dichlorophenyl)isoxazol-4-yl)methoxy)-5-oxo-10,11-dihydro-5H-dibenzo[a,d][7]annulene-3-carboxylic acid]
- AUCINF ([2]; male SD rats, iv 1 mg/kg): 1210 ng·h/mL
- AUClast ([2]; male SD rats, iv 1 mg/kg): 1180 ng·h/mL
- Cl ([2]; male SD rats, iv 1 mg/kg): 14 mL/min/kg
- Cmax ([2]; male SD rats, iv 1 mg/kg): 2560 ng/mL
- MRTINF ([2]; male SD rats, iv 1 mg/kg): 1.05 h
- T1/2 ([2]; male SD rats, iv 1 mg/kg): 1.82 h
- Tmax ([2]; male SD rats, iv 1 mg/kg): 4.8 min
- Vss ([2]; male SD rats, iv 1 mg/kg): 0.86 L/kg
- AUCINF ([2]; male SD rats, po 5 mg/kg): 11300 ng·h/mL
- AUClast ([2]; male SD rats, po 5 mg/kg): 11200 ng·h/mL
- Cmax ([2]; male SD rats, po 5 mg/kg): 9970 ng/mL
- MRTINF ([2]; male SD rats, po 5 mg/kg): 2.35 h
- T1/2 ([2]; male SD rats, po 5 mg/kg): 4.16 h
- Tmax ([2]; male SD rats, po 5 mg/kg): 19.8 min
- F ([2]; male SD rats, po 5 mg/kg vs iv 1 mg/kg): 189.7%
- EC50 [1]: 4 nM

Compound: CC(C)c1cnn(-c2c(Cl)cccc2Cl)c1COc1ccc2c(n1)CCc1ccc(C(=O)O)cc1O2 [Example 17, 2-((1-(2,6-dichlorophenyl)-4-isopropyl-1H-pyrazol-5-yl)methoxy)-10,11-dihydrobenzo[6,7]oxepino[3,2-b]pyridine-7-carboxylic acid]
- F ([2]; male, SD, rat, in vivo): 67.7%
- AUC(0-inf) [2, 3]: 1840 ng·h/mL
- AUC(0-t) [2, 3]: 1840 ng·h/mL
- Cmax [2, 3]: 4280 ng/mL
- MRT inf [2, 3]: 19.2 min
- Tmax [2, 3]: 4.8 min
- Vd [2, 3]: 0.89 L/kg
- clearance [2, 3]: 50 mL/min/kg
- half-life [2, 3]: 25.8 min
- AUC(0-inf) [2, 4]: 6240 ng·h/mL
- AUC(0-t) [2, 4]: 6230 ng·h/mL
- Cmax [2, 4]: 5960 ng/mL
- MRT inf [2, 4]: 50.4 min
- Tmax [2, 4]: 19.8 min
- half-life [2, 4]: 47.4 min
- EC50 [1]: 23 nM

Compound: O=C(O)c1ccc2c(c1)Oc1ccc(OCc3c(-c4c(Cl)cccc4Cl)noc3C3CC3)nc1CC2 [Example 3, 2-((5-cyclopropyl-3-(2,6-dichlorophenyl)isoxazol-4-yl)methoxy)-10,11-dihydrobenzo[6,7]oxepino[3,2-b]pyridine-7-carboxylic acid]
- EC50 [1]: 37 nM

Compound: CS(=O)(=O)NC(=O)c1ccc2c(c1)Oc1ccc(OCc3c(-c4c(Cl)cccc4Cl)noc3C3CC3)nc1CC2 [Example 19, 2-((5-cyclopropyl-3-(2,6-dichlorophenyl)isoxazol-4-yl)methoxy)-N-(methylsulfonyl)-10,11-dihydrobenzo[6,7]oxepino[3,2-b]pyridine-7-carboxamide]
- EC50 [1]: 6 nM

Compound: O=C(O)c1ccc2c(c1)Oc1ccc(OCc3c(-c4c(Cl)cccc4Cl)noc3C3CC3)cc1[S+]([O-])C2 (stereo not drawn) [Example 7, 8-((5-cyclopropyl-3-(2,6-dichlorophenyl)isoxazol-4-yl)methoxy)-11H-dibenzo [b,f][1,4]oxathiepine-3-carboxylic acid-10-oxide]
- EC50 [1]: 15 nM

Compound: O=C(O)c1ccc2c(c1)Oc1cnc(OCc3c(-c4c(Cl)cccc4Cl)noc3C3CC3)cc1CC2 [Example 4, 3-((5-cyclopropyl-3-(2,6-dichlorophenyl)isoxazol-4-yl)methoxy)-5,6-dihydrobenzo[6,7]oxepino[2,3-c]pyridine-9-carboxylic acid]
- F ([2]; male, SD, rat, in vivo): 44.7%
- AUC(0-inf) [2, 3]: 878 ng·h/mL
- AUC(0-t) [2, 3]: 877 ng·h/mL
- Cmax [2, 3]: 1900 ng/mL
- MRT inf [2, 3]: 24 min
- Tmax [2, 3]: 4.8 min
- Vd [2, 3]: 0.45 L/kg
- clearance [2, 3]: 19 mL/min/kg
- half-life [2, 3]: 30 min
- AUC(0-inf) [2, 4]: 1980 ng·h/mL
- AUC(0-t) [2, 4]: 1960 ng·h/mL
- Cmax [2, 4]: 1800 ng/mL
- MRT inf [2, 4]: 82.2 min
- Tmax [2, 4]: 19.8 min
- half-life [2, 4]: 294 min
- EC50 [1]: 46 nM

Compound: O=C(O)c1ccc2c(c1)C1(CC1)c1ccc(OCc3c(-c4c(Cl)cccc4Cl)noc3C3CC3)cc1CC2 [Example 9, 2′-((5-cyclopropyl-3-(2,6-dichlorophenyl)isoxazol-4-yl)methoxy)-10′,11′-dihydrospiro[cyclopropane-1,5′-dibenzo[a,d][7]annulene]-7′-carboxylic acid]
- EC50 [1]: 38 nM
